In US7205295B2, “Benzoxazin-3-ones and derivatives thereof as therapeutic agents” (Warner-Lambert Company LLC, priority 2002, dated 2007):
pIC50: −log10 of the molar value.

Target: T1, PI3Kγ (p101/p110γ protein) (Homo sapiens, UniProt P48736)
T1 construct: HA; made in house; host or cells: Spodoptera frugiperda (Sf9) cells, baculovirus co-infection
Test: PI3Kγ In Vitro Kinase Assay
Format: biochemical
Settings: purified recombinant p101/p110γ with G protein β1/γ2 subunits; 20 μM ATP, 25 μM PIP2; 20 minutes at room temperature
Outline: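 Reactions ran 20 min at room temperature, pairing lipid micelles (25 μM PIP2, 300 μM PE, 0.02% Na-cholate, 10 mM MgCl2) with 20 μM ATP including [γ-32P]ATP. The enzyme was recombinant p101/p110γ (2.7 nM) with G protein β1/γ2 (57.7 nM). [32P]PIP3 product was stopped with H3PO4, filtered and scintillation counted.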

T1 sequence (P48736 whole entry, species assumed): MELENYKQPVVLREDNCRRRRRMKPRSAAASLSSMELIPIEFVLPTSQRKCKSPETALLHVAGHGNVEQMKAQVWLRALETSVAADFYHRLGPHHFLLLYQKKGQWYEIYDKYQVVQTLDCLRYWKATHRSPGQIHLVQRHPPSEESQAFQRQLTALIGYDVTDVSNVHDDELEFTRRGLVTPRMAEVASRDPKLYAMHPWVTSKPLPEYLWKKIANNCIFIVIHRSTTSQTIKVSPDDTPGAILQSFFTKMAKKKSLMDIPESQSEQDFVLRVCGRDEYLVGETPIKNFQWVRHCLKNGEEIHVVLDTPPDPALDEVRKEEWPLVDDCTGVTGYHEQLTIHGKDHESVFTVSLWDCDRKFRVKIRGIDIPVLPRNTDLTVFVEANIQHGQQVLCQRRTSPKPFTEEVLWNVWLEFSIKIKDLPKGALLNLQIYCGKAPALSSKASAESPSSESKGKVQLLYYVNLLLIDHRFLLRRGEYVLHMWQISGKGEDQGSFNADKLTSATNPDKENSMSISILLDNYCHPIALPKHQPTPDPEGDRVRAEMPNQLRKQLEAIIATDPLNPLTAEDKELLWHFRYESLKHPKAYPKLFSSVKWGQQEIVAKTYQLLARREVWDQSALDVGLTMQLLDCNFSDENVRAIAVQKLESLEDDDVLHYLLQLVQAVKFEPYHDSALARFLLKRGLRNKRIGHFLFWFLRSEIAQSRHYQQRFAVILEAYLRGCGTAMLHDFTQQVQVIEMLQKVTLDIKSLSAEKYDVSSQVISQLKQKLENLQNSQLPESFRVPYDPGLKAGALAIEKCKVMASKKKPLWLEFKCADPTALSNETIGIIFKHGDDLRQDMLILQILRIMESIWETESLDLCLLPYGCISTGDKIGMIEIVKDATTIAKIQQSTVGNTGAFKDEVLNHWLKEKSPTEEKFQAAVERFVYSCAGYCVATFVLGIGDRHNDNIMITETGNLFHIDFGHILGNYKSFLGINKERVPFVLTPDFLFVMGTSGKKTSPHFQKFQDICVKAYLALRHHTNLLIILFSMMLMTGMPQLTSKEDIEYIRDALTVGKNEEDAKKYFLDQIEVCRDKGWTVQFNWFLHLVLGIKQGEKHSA
T1 sequence (Q8WYR1 whole entry partner, species assumed): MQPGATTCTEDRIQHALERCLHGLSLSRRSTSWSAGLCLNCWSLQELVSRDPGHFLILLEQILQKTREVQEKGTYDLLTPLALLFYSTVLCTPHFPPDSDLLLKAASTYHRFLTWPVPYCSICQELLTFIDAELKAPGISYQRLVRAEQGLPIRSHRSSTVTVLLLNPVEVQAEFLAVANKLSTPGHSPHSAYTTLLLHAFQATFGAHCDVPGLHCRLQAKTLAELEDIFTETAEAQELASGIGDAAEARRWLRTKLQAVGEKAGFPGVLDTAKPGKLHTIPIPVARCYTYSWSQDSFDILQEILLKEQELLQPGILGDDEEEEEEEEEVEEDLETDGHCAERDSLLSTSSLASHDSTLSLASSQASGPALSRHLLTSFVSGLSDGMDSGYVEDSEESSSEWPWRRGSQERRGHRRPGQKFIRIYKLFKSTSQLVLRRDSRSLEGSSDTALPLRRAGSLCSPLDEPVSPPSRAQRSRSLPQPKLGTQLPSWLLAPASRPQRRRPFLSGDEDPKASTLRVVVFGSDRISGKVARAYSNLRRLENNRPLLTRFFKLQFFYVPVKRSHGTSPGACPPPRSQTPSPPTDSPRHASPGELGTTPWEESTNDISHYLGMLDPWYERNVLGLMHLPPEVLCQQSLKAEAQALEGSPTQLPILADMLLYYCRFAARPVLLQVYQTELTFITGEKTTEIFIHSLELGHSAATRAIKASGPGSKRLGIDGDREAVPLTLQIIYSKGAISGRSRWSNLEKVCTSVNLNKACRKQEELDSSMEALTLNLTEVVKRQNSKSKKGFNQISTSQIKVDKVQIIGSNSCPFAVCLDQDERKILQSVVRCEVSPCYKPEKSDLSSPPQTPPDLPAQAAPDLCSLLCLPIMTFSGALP

Row | SMILES | pIC50
1 | CC(C)n1cnc2ccc(CN3C(=O)COc4ccc(C=C5SC(=S)NC5=O)cc43)cc21 [Example 336, 4-(3-Isopropyl-3H-benzimidazol-5-ylmethyl)-6-(4-oxo-2-thioxo-thiazolidin-5-ylidenemethyl)-4H-1,4-benzoxazin-3-one] | 8.05
2 | O=C1NC(=S)SC1=Cc1ccc2c(c1)N(CCc1cc(C(F)(F)F)cc(C(F)(F)F)c1)C(=O)CO2 [Example 113, 4-[2-(Bis-trifluromethyl-phenyl)-ethyl]-6-(4-oxo-2-thioxo-thiazolidin-5-ylidenmethyl)-4H-benzo[1,4]oxazin-3-one] | 7.85
3 | CC(C)(C)c1cc(CN2C(=O)COc3ccc(C=C4SC(=S)NC4=O)cc32)cc(-c2ccccc2)c1 [Example 65, 4-(5-tert-Butyl-biphenyl-3-ylmethyl)-6-(4-oxo-2-thioxo-thiazolidin-5-ylidenemethyl)-4H-1,4-benzoxazin-3-one] | 7.02
4 | CC(C)(C)c1cc(CN2C(=O)COc3ccc(C=C4SC(=O)NC4=O)cc32)cc(C(C)(C)C)c1O [Example 219, 5-[4-(3,5-Di-tert-butyl-4-hydroxy-benzyl)-3-oxo-3,4-dihydro-2H-1,4-benzoxazin-6-ylmethylene]-thiazolidine-2,4-dione] | 8.22
5 | O=C1NC(=S)SC1=Cc1cc(F)c2c(c1)N(Cc1ccc(Cl)c(C(F)(F)F)c1)C(=O)CO2 [Example 233, 4-(4-Chloro-3-trifluoromethyl-benzyl)-8-fluoro-6-(4-oxo-2-thioxo-thiazolidin-5-ylidenemethyl)-4H-1,4-benzoxazin-3-one] | 7.46
6 | Cc1cc(CN2C(=O)COc3c(F)cc(C=C4SC(=S)NC4=O)cc32)c(C)o1 [Example 318, 4-(2,5-Dimethyl-furan-3-ylmethyl)-8-fluoro-6-(4-oxo-2-thioxo-thiazolidin-5-ylidenemethyl)-4H-benzo[1,4]oxazin-3-one] | 7.60
7 | COC(=O)c1cc(CN2C(=O)COc3ccc(C=C4SC(=S)NC4=O)cc32)cc(C(C)(C)C)c1 [Example 57, 3-tert-Butyl-5-[3-oxo-6-(4-oxo-2-thioxo-thiazolidin-5-ylidenemethyl)-2,3-dihydro-1,4-benzoxazin-4-ylmethyl]-benzoic acid methyl ester] | 7.54
8 | O=C1NC(=S)SC1=Cc1ccc2c(c1)N(CCCCc1ccccc1)C(=O)CO2 [Example 174, 6-(4-Oxo-2-thioxo-thiazolidin-5-ylidenemethyl)-4-(4-phenyl-butyl)-4H-1,4-benzoxazin-3-one] | 8.70
9 | O=C1NC(=O)C(=Cc2ccc3c(c2)N(Cc2cc(Cl)nc(Cl)c2)C(=O)CO3)S1 [Example 226, 5-[4-(2,6-Dichloro-pyridin-4-ylmethyl)-3-oxo-3,4-dihydro-2H-1,4-benzoxazin-6-ylmethylene]-thiazolidine-2,4-dione] | 4.47
10 | Cc1cc(C)cc(CN2C(=O)COc3ccc(C=C4SC(=S)NC4=O)cc32)c1 [Example 14, 4-(3,5-Dimethyl-benzyl)-6-(4-oxo-2-thioxo-thiazolidin-5-ylidenemethyl)-4H-1,4-benzoxazin-3-one] | 8.30
11 | COC(=O)CN1C(=O)COc2ccc(C=C3SC(=S)NC3=O)cc21 [Example 7, [3-Oxo-6-(4-oxo-2-thioxo-thiazolidin-5-ylidenemethyl)-2,3-dihydro-1,4-benzoxazin-4-yl]-acetic acid methyl ester] | 7.08
12 | CC(C)(C)CCN1C(=O)COc2ccc(C=C3SC(=S)NC3=O)cc21 [Example 155, 4-(3,3-Dimethyl-butyl)-6-(4-oxo-2-thioxo-thiazolidin-5-ylidenemethyl)-4H-1,4-benzoxazin-3-one] | 8.00
13 | COc1ccc(CCCN2C(=O)COc3ccc(C=C4SC(=S)NC4=O)cc32)cc1 [Example 122, 4-[3-(4-Methoxy-phenyl)-propyl]-6-(4-oxo-2-thioxo-thiazolidin-5-ylidenemethyl)-4H-benzo[1,4]oxazin-3-one] | 8.30
14 | CC(C)(C)c1cc(C#N)cc(CN2C(=O)COc3ccc(C=C4SC(=S)NC4=O)cc32)c1 [Example 55, 3-tert-Butyl-5-[3-oxo-6-(4-oxo-2-thioxo-thiazolidin-5-ylidenemethyl)-2,3-dihydro-1,4-benzoxazin-4-ylmethyl]-benzonitrile] | 8.05
15 | Cc1cccc(CCN2C(=O)COc3ccc(C=C4SC(=S)NC4=O)cc32)c1 [Example 101, 6-(4-Oxo-2-thioxo-thiazolidin-5-ylidenmethyl)-4-[2-m-tolyl-ethyl]-4H-benzo[1,4]oxazin-3-one] | 8.30
16 | C[C@@H]1Oc2ccc(C=C3SC(=S)NC3=O)cc2N(Cc2ccccc2)C1=O [Example 18, (S)-4-Benzyl-2-methyl-6-(4-oxo-2-thioxo-thiazolidin-5-ylidenemethyl)-4H-1,4-benzoxazin-3-one] | 6.50

Row | SMILES | pIC50
17 | CC(C)(C)c1cc(CN2C(=O)COc3c(F)cc(/C=C4\SC(=O)NC4=O)cc32)cc(C(C)(C)O)c1 [Example 276, 5-[1-{4-[3-tert-Butyl-5-(1-hydroxy-1-methyl-ethyl)-benzyl]-8-fluoro-3-oxo-3,4-dihydro-2H-benzo[1,4]oxazin-6-yl}-meth-(Z)-ylidene]-thiazolidine-2,4-dione] | 8.15
18 | CC(C)(C)c1cc(CN2C(=O)COc3c(F)cc(C=C4SC(=S)NC4=O)cc32)cc(C(C)(C)C)c1 [Example 54, 4-(3,5-Di-tert-butyl-benzyl)-8-fluoro-6-(4-oxo-2-thioxo-thiazolidin-5-ylidenemethyl)-4H-1,4-benzoxazin-3-one] | 7.40
19 | O=C1NC(=S)SC1=Cc1ccc2c(c1)N(Cc1cc(-c3ccccc3)cc(-c3ccccc3)c1)C(=O)CO2 [Example 43, 6-(4-Oxo-2-thioxo-thiazolidin-5-ylidenemethyl)-4-1,1′,3′,1″-terphenyl-5′-ylmethyl-4H-1,4-benzoxazin-3-one] | 5.84
20 | CC(C)(O)c1cc(CN2C(=O)COc3c(F)cc(C=C4SC(=S)NC4=O)cc32)ccc1Cl [Example 331, 4-[4-Chloro-3-(1-hydroxy-1-methyl-ethyl)-benzyl]-8-fluoro-6-(4-oxo-2-thioxo-thiazolidin-5-ylidenemethyl)-4H-1,4-benzoxazin-3-one; Compound with Ethane-1,2-diamine] | 8.05
21 | O=C1NC(=S)SC1=Cc1ccc2c(c1)N(Cc1ccc([N+](=O)[O-])cc1)C(=O)CO2 [Example 183, 4-(4-Nitro-benzyl)-6-(4-oxo-2-thioxo-thiazolidin-5-ylidenemethyl)-4H-1,4-benzoxazin-3-one] | 7.68
22 | CC(C)(C)c1cc(CN2C(=O)COc3ccc(C=C4OC(=S)NC4=O)cc32)cc(C(C)(C)C)n1 [Example 201, 4-(2,6-Di-tert-butyl-pyridin-4-ylmethyl)-6-(4-oxo-2-thioxo-oxazolidin-5-ylidenemethyl)-4H-1,4-benzoxazin-3-one] | 7.15
23 | CC(C)(C)c1cc(CN2C(=O)COc3ccc(C=C4SC(=S)NC4=O)cc32)n(Cc2ccccc2)n1 [Example 327, 4-(2-Benzyl-5-tert-butyl-2H-pyrazol-3-ylmethyl)-6-(4-oxo-2-thioxo-thiazolidin-5-ylidenemethyl)-4H-benzo[1,4]oxazin-3-one] | 6.61
24 | O=C1NC(=O)C(=Cc2cc(F)c3c(c2)N(Cc2ccc(CN4CCCCC4)cc2)C(=O)CO3)S1 [Example 76, 5-[8-Fluoro-3-oxo-4-(4-piperidin-1-ylmethyl-benzyl)-3,4-dihydro-2H-1,4-benzoxazin-6-ylmethylene]-thiazolidine-2,4-dione] | 8.22
25 | O=C1NC(=S)SC1=Cc1ccc2c(c1)N(Cc1cccc(I)c1)C(=O)CO2 [Example 40, 4-(3-Iodo-benzyl)-6-(4-oxo-2-thioxo-thiazolidin-5-ylidenemethyl)-4H-1,4-benzoxazin-3-one] | 7.82
26 | O=C1NC(=S)S/C1=C\c1cc(F)c2c(c1)N(Cc1ccc(Cl)c(Cl)c1)C(=O)CO2 [Example 341, 4-(3,4-Dichloro-benzyl)-8-fluoro-6-[4-oxo-2-thioxo-thiazolidin-(5Z)-ylidenemethyl]-4H-benzo[1,4]oxazin-3-one] | 8.52
27 | O=C1NC(=S)SC1=Cc1ccc2c(c1)N(Cc1cnc3ccccc3c1)C(=O)CO2 [Example 323, 6-(4-Oxo-2-thioxo-thiazolidin-5-ylidenemethyl)-4-quinolin-3-ylmethyl-4H-benzo[1,4]oxazin-3-one] | 7.54
28 | O=C1NC(=S)SC1=Cc1ccc2c(c1)N(Cc1ccc3nccnc3c1)C(=O)CO2 [Example 314, 6-(4-Oxo-2-thioxo-thiazolidin-5-ylidenemethyl)-4-quinoxalin-6-ylmethyl-4H-benzo[1,4]oxazin-3-one] | 7.44
29 | Cc1cc(CN2C(=O)COc3ccc(C=C4SC(=S)N(CC(=O)O)C4=O)cc32)c(C(F)(F)F)o1 [Example 321, {5-[4-(5-Methyl-2-triflouromethyl-furan-3-ylmethyl)-3-oxo-3,4-dihydro-2H-benzo[1,4]oxazin-6-ylmethylene]-4-oxo-2-thioxo-thiazolidin-3-yl}-acetic acid; Compound with ethane-1,2-diamine] | 5.01
30 | O=C1NC(=S)SC1=Cc1ccc2c(c1)N(Cc1ccc3ncccc3c1)C(=O)CO2 [Example 337, 6-(4-Oxo-2-thioxo-thiazolidin-5-ylidenemethyl)-4-quinolin-6-ylmethyl-4H-1,4-benzoxazin-3-one] | 8.10
31 | O=C1NC(=S)SC1=Cc1cc(F)c2c(c1)N(Cc1cncc(Cl)c1)C(=O)CO2 [Example 330, 4-(5-Chloro-pyridin-3-ylmethyl)-8-fluoro-6-(4-oxo-2-thioxo-thiazolidin-5-ylidenemethyl)-4H-1,4-benzoxazin-3-one] | 7.33
32 | O=C1NC(=S)SC1=Cc1cc(F)c2c(c1)N(Cc1ccccc1)C(=O)CO2 [Example 46, 4-Benzyl-8-fluoro-6-(4-oxo-2-thioxo-thiazolidin-5-ylidenemethyl)-4H-1,4-benzoxazin-3-one] | 8.10
